Data: article PMC6259751, “Investigating Spectrum of Biological Activity of 4- and 5-Chloro-2-hydroxy-N-[2-(arylamino)-1-alkyl-2-oxoethyl]benzamides” (Molecules, 2011)
≈ marks a conversion by molar mass, not a printed value. Where “and” joins values, the source holds several entries; their conditions need not be identical. Identical values can stand only once. Like-named read-outs stand apart in the source and are kept apart here.

Assays:
[1] = Lipophilicity determination by RP-HPLC (capacity factor k / log k); assay type: physicochemical; conditions: C18 column, MeOH 70% / H2O 30%, isocratic
Experimental: Hydrophobicities (log P/Clog P) of compounds 8 and 9 were calculated using two commercially available programs (ChemOffice Ultra 10.0 and ACD/LogP) and measured by means of RP-HPLC determination of capacity factors k with subsequent calculation of log k. The procedure was performed under isocratic conditions with methanol as an organic modifier in the mobile phase using an end-capped non-polar C18 stationary RP column. The results are shown in Table 1 and illustrated in Figure 1.
A Waters Alliance 2695 XE HPLC separation module and a Waters Photodiode Array Detector 2996 (Waters Corp., Milford, MA, USA) were used. A Symmetry® C18 5 μm, 4.6 × 250 mm, Part No. WAT054275 (Waters Corp., Milford, MA, USA) chromatographic column was used. The HPLC separation process was monitored by Empower™ 2 Chromatography Data Software, Waters 2009 (Waters Corp., Milford, MA, USA). A mixture of MeOH p.a. (70%) and H2O-HPLC – Mili-Q Grade (30%) was used as a mobile phase. The total flow of the column was 1.0 mL/min, injection volume, 30 μL, column temperature, 30 °C and sample temperature, 10 °C. The detection wavelength of 210 nm was chosen. The KI methanolic solution was used for the dead time (tD) determination. Retention times (tR) were measured in minutes. The capacity factors k were calculated using the Empower™ 2 Chromatography Data Software according to formula k = (tR - tD)/tD, where tR is the retention time of the solute, whereas tD denotes the dead time obtained using an unretained analyte. Log k, calculated from the capacity factor k, is used as the lipophilicity index converted to log P scale.

[2] = tested on: Mycobacterium tuberculosis MTB CNCTC My 331/88; assay: In vitro antimycobacterial evaluation; assay type: cell-based; conditions: IC90 value
[3] = tested on: Mycobacterium avium MA CNCTC My 330/88; assay: In vitro antimycobacterial evaluation; assay type: cell-based; conditions: IC90 value
[4] = tested on: Mycobacterium kansasii MK CNCTC My 235/80; assay: In vitro antimycobacterial evaluation; assay type: cell-based; conditions: IC90 value
[5] = tested on: Candida tropicalis 156; assay: In vitro antifungal susceptibility testing (broth microdilution); assay type: cell-based; conditions: M27-A2 for yeasts, IC80 value
[6] = tested on: Trichophyton mentagrophytes 445; assay: as above; assay type: cell-based; conditions: M38-A for moulds, IC50 value, read-out: MIC TM
[7] = tested on: photosynthetic electron transport (PET) in spinach chloroplasts; assay: Inhibition of photosynthetic electron transport (PET) in spinach chloroplasts; assay type: biochemical, Spinacia oleracea L.; conditions: DCPIP photoreduction
Experimental: Chloroplasts were prepared from spinach (Spinacia oleracea L.) according to Masarovicova and Kralova. The inhibition of photosynthetic electron transport (PET) in spinach chloroplasts was determined spectrophotometrically (Genesys 6, Thermo Scientific, USA), using an artificial electron acceptor 2,6-dichlorophenol-indophenol (DCIPP) according to Kralova et al., and the rate of photosynthetic electron transport was monitored as a photoreduction of DCPIP. The measurements were carried out in phosphate buffer (0.02 mol/L, pH 7.2) containing sucrose (0.4 mol/L), MgCl2 (0.005 mol/L) and NaCl (0.015 mol/L). The chlorophyll content was 30 mg/L in these experiments and the samples were irradiated (~100 W/m^2) from 10 cm distance with a halogen lamp (250 W) using a 4 cm water filter to prevent warming of the samples. The studied compounds were dissolved in DMSO due to their limited water solubility. […] The inhibitory efficiency of the studied compounds was expressed by IC50 values, i.e. by molar concentration of the compounds causing 50% decrease in the oxygen evolution rate relative to the untreated control.

[8] = assay type: physicochemical; conditions: for precipitation in the testing medium: antimycobacterial testing medium
Experimental: (§1) The discussed amides were tested against three Mycobacteria strains. […] Activities of some benzamides, especially against M. avium and M. kansasii, considerably exceeded the activity of isoniazid (INH) used as an internal standard. The discussed compounds can be divided according to the activities against individual Mycobacteria strains, and structure-activity relationships within Group 1, Group 2 and Group 4 can be discussed.

[9] = tested on: Staphylococcus aureus CCM 4516/08; assay: In vitro antibacterial susceptibility testing (broth microdilution); conditions: read-out: MIC SA
[10] = tested on: methicilin resistant Staphylococcus aureus H 5996/08; assay: as above; conditions: MRSA, read-out: MIC MRSA
[11] = tested on: Staphylococcus epidermidis H 6966/08; assay: as above; conditions: read-out: MIC SE
[12] = tested on: Enterococcus sp. J 14365/08; assay: as above; conditions: read-out: MIC EF
[13] = tested on: three Mycobacteria strains; assay: Antimycobacterial screening, summary statements (strain not specified); assay type: cell-based, Mycobacterium sp.; conditions: Mycobacterium, read-out: antitubercular / antimycobacterial activity (MIC)
Experimental: as §1
The in vitro antimycobacterial activity of all prepared compounds was evaluated against Mycobacterium tuberculosis MTB CNCTC My 331/88 (identical with H37RV and ATCC 27294, dilution of the strain was 10^−3 μmol/L), Mycobacterium avium MA CNCTC My 330/88 (identical with ATCC 25291, dilution of the strain was 10^−5 μmol/L) and Mycobacteriumkansasii MK CNCTC My 235/80 (identical with ATCC 12478, dilution of the strain was 10^−4 μmol/L) in the Laboratory for mycobacterial diagnostics and TB, Institute of Public Health in Ostrava, Czech Republic. All strains were obtained from the Czech National Collection of Type Cultures (CNCTC). Antimycobacterial activities were determined in the Sula semisynthetic medium (Sevac, Prague, Czech Republic). […] Reading was carried out on a stand with a bottom magnifying mirror, macroscopically, with the use of magnifying glass. The growth in plates was evaluated after 14 and 21 days of the incubation. […]

[14] = tested on: photosynthetic electron transport (PET) in spinach chloroplasts; design: method as in earlier work; conditions: standard ref 41; cited from earlier work

Structure (SMILES)	log k [1]	MIC ([2]; 14h) [µM]	MIC ([2]; 21h) [µM]	MIC ([3]; 14h) [µM]	MIC ([3]; 21h) [µM]	MIC ([4]; 14h) [µM]	MIC ([4]; 21h) [µM]	MIC ([5]; 24h) [µM]	MIC ([5]; 48h) [µM]	MIC ([6]; 72h) [µM]	MIC ([6]; 120h) [µM]	IC50 [7] [µM]	MIC ([9]; CCM4516, 24 h) [µM]	MIC ([9]; CCM4516, 48 h) [µM]	MIC ([10]; 24 h) [µM]	MIC ([10]; 48 h) [µM]	MIC ([11]; H6966/08, 24 h) [µM]	MIC ([11]; H6966/08, 48 h) [µM]	MIC ([12]; SP.J14365/08, 24 h) [µM]	MIC ([12]; SP.J14365/08, 48 h) [µM]	also measured
C[C@H](NC(=O)c1cc(Cl)ccc1O)C(=O)Nc1cccc(Cl)c1 [8b]	0.41 and 0.4166	250 (≈ 88.3 µg/mL)	> 500	500 (≈ 177 µg/mL)	> 500	500 (≈ 177 µg/mL)	> 500	> 125	> 125	125 (≈ 44.2 µg/mL)	125 (≈ 44.2 µg/mL)	41.7	> 250	> 250	> 250	> 250	> 250	> 250	> 250	> 250	solubility in comparison with the initial esters [8]: lower solubility; precipitation in the testing medium [8]: precipitation in the testing medium
O=C(N[C@H](Cc1ccccc1)C(=O)Nc1ccc(Cl)cc1)c1cc(Cl)ccc1O [8l, N-{(1R)-1-benzyl-2-[(4-chlorophenyl)amino]-2-oxoethyl}-5-chloro-2-hydroxybenzamide]	0.7329	16 (≈ 6.87 µg/mL)	16 (≈ 6.87 µg/mL)	32 (≈ 13.7 µg/mL)	32 (≈ 13.7 µg/mL)	32 (≈ 13.7 µg/mL)	32 (≈ 13.7 µg/mL)	125 (≈ 53.7 µg/mL)	> 125	125 (≈ 53.7 µg/mL)	125 (≈ 53.7 µg/mL)	33.7	> 125	> 125	> 125	> 125	> 125	> 125	> 125	> 125	MIC [13]: 32 µM (≈ 13.7 µg/mL)
O=C(N[C@@H](Cc1ccccc1)C(=O)Nc1ccc(Cl)c(Cl)c1)c1cc(Cl)ccc1O [8q]	0.9485	125 (≈ 58 µg/mL)	> 1000	125 (≈ 58 µg/mL)	> 1000	250 (≈ 116 µg/mL)	> 1000	> 125	> 125	> 125	> 125	74.2	> 500	> 500	> 500	> 500	> 500	> 500	> 500	> 500	solubility in comparison with the initial esters [8]: lower solubility; precipitation in the testing medium [8]: precipitated from testing medium
O=C(N[C@H](Cc1ccccc1)C(=O)Nc1ccc(Cl)c(Cl)c1)c1cc(Cl)ccc1O [8r]	0.9408	125 (≈ 58 µg/mL)	> 1000	125 (≈ 58 µg/mL)	> 1000	250 (≈ 116 µg/mL)	> 1000	> 125	> 125	> 125	> 125		> 500	> 500	> 500	> 500	> 500	> 500	> 500	> 500	solubility in comparison with the initial esters [8]: lower solubility; precipitation in the testing medium [8]: precipitated from testing medium
C[C@H](NC(=O)c1ccc(Cl)cc1O)C(=O)Nc1ccc(Cl)cc1 [9a]	0.4934	62.5 (≈ 22.1 µg/mL)	62.5 (≈ 22.1 µg/mL)	125 (≈ 44.2 µg/mL)	125 (≈ 44.2 µg/mL)	125 (≈ 44.2 µg/mL)	125 (≈ 44.2 µg/mL)	> 250	> 250	> 250	> 250	61.5	250 (≈ 88.3 µg/mL)	500 (≈ 177 µg/mL)	500 (≈ 177 µg/mL)	500 (≈ 177 µg/mL)	250 (≈ 88.3 µg/mL)	250 (≈ 88.3 µg/mL)	500 (≈ 177 µg/mL)	500 (≈ 177 µg/mL)	
CC(C)[C@H](NC(=O)c1ccc(Cl)cc1O)C(=O)Nc1ccc(Cl)cc1 [9c]	0.6839	62.5 (≈ 23.8 µg/mL)	62.5 (≈ 23.8 µg/mL)	62.5 (≈ 23.8 µg/mL)	125 (≈ 47.7 µg/mL)	62.5 (≈ 23.8 µg/mL)	62.5 (≈ 23.8 µg/mL)	> 125	> 125	> 125	> 125	23.8	> 500	> 500	> 500	> 500	> 500	> 500	> 500	> 500	
O=C(N[C@H](Cc1ccccc1)C(=O)Nc1ccc(Cl)cc1)c1ccc(Cl)cc1O [9f, N-{(1R)-1-benzyl-2-[(4-chlorophenyl)amino]-2-oxoethyl}-4-chloro-2-hydroxybenzamide]	0.7479	32 (≈ 13.7 µg/mL)	32 (≈ 13.7 µg/mL)	32 (≈ 13.7 µg/mL)	32 (≈ 13.7 µg/mL)	32 (≈ 13.7 µg/mL)	32 (≈ 13.7 µg/mL)	> 125	> 125	> 125	> 125	23.5	> 500	> 500	> 500	> 500	> 500	> 500	> 500	> 500	MIC [13]: 32 µM (≈ 13.7 µg/mL)
CN(C)C(=O)Nc1ccc(Cl)c(Cl)c1 [DCMU, 3-(3,4-dichlorophenyl)-1,1-dimethylurea]																					IC50 [14]: ~1.9 µM and 1.9 µM
